Tests used:
[1] = Cytotoxicity against mouse RAW264.7 cells assessed as cell viability at 10 uM by MTS assay relative to control
[2] = system: RAW264.7; assay: Inhibition of ROS production in LPS-induced mouse RAW264.7 cells; format: functional, cell-based

SMILES	IC50 [2]	viability at 10 µM [1]
O=C1/C(=C/c2ccc(C(F)(F)F)cc2)CCc2ccc(O)cc21	> 10000 nM	> 90%
O=C1/C(=C/c2cccc(O)c2)CCc2ccc(O)cc21	810 nM	> 90%
O=C1/C(=C/c2cccc(Cl)c2)CCc2c(O)cccc21		< 90%
O=C1/C(=C/c2cccnc2)CCc2cc(O)ccc21	2030 nM	> 90%
O=C1/C(=C/c2ccc(OC(F)(F)F)cc2)CCc2cc(O)ccc21	1350 nM	> 90%
O=C1/C(=C/c2ccccc2OC(F)(F)F)CCc2cc(O)ccc21		< 90%
O=C1/C(=C/c2cccc(F)c2)CCc2cc(O)ccc21	1230 nM	> 90%
O=C1/C(=C/c2cccc(F)c2)CCc2c(O)cccc21		< 90%
O=C1/C(=C/c2ccc(Br)cc2)CCc2c(O)cccc21		< 90%
O=C1/C(=C/c2ccccn2)CCc2cc(O)ccc21	> 10000 nM	> 90%
O=C1/C(=C/c2ccccc2F)CCc2c(O)cccc21		< 90%
O=C1/C(=C/c2cccc(O)c2)CCc2c(O)cccc21		< 90%
O=C1/C(=C/c2ccc(F)cc2)CCc2cc(O)ccc21	1370 nM	> 90%
O=C1/C(=C/c2ccccc2OC(F)(F)F)CCc2c(O)cccc21		< 90%
O=C1/C(=C/c2cccc(Cl)c2)CCc2cc(O)ccc21	1750 nM	> 90%
O=C1/C(=C/c2ccc(O)cc2)CCc2c(O)cccc21		< 90%
O=C1/C(=C/c2ccccc2O)CCc2c(O)cccc21		< 90%
O=C1/C(=C/c2ccc(Cl)cc2)CCc2c(O)cccc21		< 90%
O=C1/C(=C/c2ccc(Cl)cc2)CCc2cc(O)ccc21	2480 nM	> 90%
O=C1/C(=C/c2cccc(C(F)(F)F)c2)CCc2ccc(O)cc21		< 90%
O=C1/C(=C/c2ccc(C(F)(F)F)cc2)CCc2c(O)cccc21		< 90%
O=C1/C(=C/c2ccccc2C(F)(F)F)CCc2cc(O)ccc21		< 90%

SMILES	IC50 [2]	viability at 10 µM [1]
O=C1/C(=C/c2cccc(Cl)c2)CCc2ccc(O)cc21	210 nM	> 90%
O=C1/C(=C/c2ccc(O)cc2)CCc2ccc(O)cc21		< 90%
O=C1/C(=C/c2ccc(Br)cc2)CCc2ccc(O)cc21	800 nM	> 90%
O=C1/C(=C/c2ccc(F)cc2)CCc2c(O)cccc21		< 90%
O=C1/C(=C/c2ccccn2)CCc2ccc(O)cc21		< 90%
O=C1/C(=C/c2cccc(OC(F)(F)F)c2)CCc2cc(O)ccc21	520 nM	> 90%
O=C1/C(=C/c2ccc(F)cc2)CCc2ccc(O)cc21	840 nM	> 90%
O=C1/C(=C/c2ccccc2O)CCc2ccc(O)cc21		< 90%
O=C1/C(=C/c2ccc(C(F)(F)F)cc2)CCc2cc(O)ccc21	3260 nM	> 90%
O=C1/C(=C/c2cccc(OC(F)(F)F)c2)CCc2c(O)cccc21		< 90%
O=C1/C(=C/c2ccccc2)CCc2c(O)cccc21		< 90%
O=C1/C(=C/c2ccc(OC(F)(F)F)cc2)CCc2c(O)cccc21		< 90%
O=C1/C(=C/c2ccncc2)CCc2ccc(O)cc21	2340 nM	> 90%
O=C1/C(=C/c2cccc(C(F)(F)F)c2)CCc2cc(O)ccc21	180 nM	> 90%
O=C1/C(=C/c2ccc(OC(F)(F)F)cc2)CCc2ccc(O)cc21	980 nM	> 90%
O=C1/C(=C/c2ccc(Cl)cc2)CCc2ccc(O)cc21	1100 nM	> 90%
O=C1/C(=C/c2cccc(F)c2)CCc2ccc(O)cc21	830 nM	> 90%
O=C1/C(=C/c2ccc(Br)cc2)CCc2cc(O)ccc21	1520 nM	> 90%
O=C1/C(=C/c2cccc(OC(F)(F)F)c2)CCc2ccc(O)cc21		< 90%
O=C1/C(=C/c2ccc(O)cc2)CCc2cc(O)ccc21		< 90%
O=C1/C(=C/c2cccnc2)CCc2ccc(O)cc21	3040 nM	> 90%

Continued, in another order:

IC50 [2]	SMILES	viability at 10 µM [1]
1740 nM	O=C1/C(=C/c2ccccc2F)CCc2cc(O)ccc21	> 90%
2950 nM	O=C1/C(=C/c2cccnc2)CCc2c(O)cccc21	> 90%
1070 nM	O=C1/C(=C/c2ccccc2Br)CCc2cc(O)ccc21	> 90%
3510 nM	O=C1/C(=C/c2cccc(O)c2)CCc2cc(O)ccc21	> 90%
740 nM	O=C1/C(=C/c2ccccn2)CCc2c(O)cccc21	> 90%
1020 nM	O=C1/C(=C/c2ccccc2C(F)(F)F)CCc2ccc(O)cc21	> 90%
1240 nM	O=C1/C(=C/c2ccccc2Br)CCc2c(O)cccc21	> 90%
480 nM	O=C1/C(=C/c2cccc(Br)c2)CCc2ccc(O)cc21	> 90%
1970 nM	O=C1/C(=C/c2cccc(C(F)(F)F)c2)CCc2c(O)cccc21	> 90%
1280 nM	O=C1/C(=C/c2ccccc2Cl)CCc2c(O)cccc21	> 90%
550 nM	O=C1/C(=C/c2ccccc2O)CCc2cc(O)ccc21	> 90%
420 nM	O=C1/C(=C/c2ccccc2OC(F)(F)F)CCc2ccc(O)cc21	> 90%
270 nM	O=C1/C(=C/c2ccccc2Cl)CCc2ccc(O)cc21	> 90%
1320 nM	O=C1/C(=C/c2ccccc2)CCc2cc(O)ccc21	> 90%
1350 nM	O=C1/C(=C/c2ccccc2F)CCc2ccc(O)cc21	> 90%
1910 nM	O=C1/C(=C/c2ccccc2Cl)CCc2cc(O)ccc21	> 90%
1700 nM	O=C1/C(=C/c2cccc(Br)c2)CCc2c(O)cccc21	> 90%
4170 nM	O=C1/C(=C/c2ccncc2)CCc2c(O)cccc21	> 90%
710 nM	O=C1/C(=C/c2ccccc2)CCc2ccc(O)cc21	> 90%
500 nM	O=C1/C(=C/c2ccccc2Br)CCc2ccc(O)cc21	> 90%
1140 nM	O=C1/C(=C/c2cccc(Br)c2)CCc2cc(O)ccc21	> 90%
3830 nM	O=C1/C(=C/c2ccccc2C(F)(F)F)CCc2c(O)cccc21	> 90%

From ChEMBL document CHEMBL5104162, “Potent inhibitory activity of hydroxylated 2-benzylidene-3,4-dihydronaphthalen-1(2H)-ones on LPS-stimulated reactive oxygen species production in RAW 264.7 macrophages” (Bioorg Med Chem Lett, 2022)
